Measured values reported in patent publication US9845330B2, “6-nitro-2,3-dihydroimidazo[2,1-b]oxazoles and a process for the preparation thereof” (priority 2013, dated 2017).
In brackets after ≈: the same amount, converted by molar mass.

Columns and labels:
[1] = system: M. tuberculosis XDR (resistant to isoniazid, rifampicin, amikacin and moxifloxacin); test: microbe, parasite or virus in culture; format: cell-based; details: Mycobacterium tuberculosis, 504 h, read-out: MIC M. tb XDR
[2] = system: M. tuberculosis MDR (resistant to isoniazid and rifampicin); test: microbe, parasite or virus in culture; format: cell-based; details: Mycobacterium tuberculosis, 504 h, read-out: MIC M. tb MDR

Compound	MIC [1] [µg/mL]	MIC [2] [µg/mL]
C[C@]1(COc2ccc(-c3cc(-c4ccc(OC(F)(F)F)cc4)on3)cc2)Cn2cc([N+](=O)[O-])nc2O1 [IC10, (R)-2-{4-[5-(4-trifluoromethoxyphenyl)isoxazol-3-yl]phenoxymethyl}-2,3-dihydro-2-methyl-6-nitroimidazo[2,1-b]oxazole]	0.5 (≈ 0.995 µM)	0.5 (≈ 0.995 µM)
CCCCCc1cc(-c2ccc(OC[C@@]3(C)Cn4cc([N+](=O)[O-])nc4O3)cc2)no1 [IC11, (R)-2-{4-[5-pentylisoxazol-3-yl]phenoxymethyl}-2,3-dihydro-2-methyl-6-nitroimidazo[2,1-b]oxazole]	32 (≈ 77.6 µM)	32 (≈ 77.6 µM)
CCCCCCCc1cc(-c2ccc(OC[C@@]3(C)Cn4cc([N+](=O)[O-])nc4O3)cc2)no1 [IC12, (R)-2-{4-[5-heptylisoxazol-3-yl]phenoxymethyl}-2,3-dihydro-2-methyl-6-nitroimidazo[2,1-b]oxazole]	2 (≈ 4.54 µM)	2 (≈ 4.54 µM)
C[C@]1(COc2ccc(-c3cc(COc4ccc(OC(F)(F)F)cc4)on3)cc2)Cn2cc([N+](=O)[O-])nc2O1 [IC13, (R)-2-{4-[5-(4-trifluoromethoxyphenoxymethyl)isoxazol-3-yl]phenoxymethyl}-2,3-dihydro-2-methyl-6-nitroimidazo[2,1-b]oxazole]	0.12 (≈ 0.225 µM)	0.12 (≈ 0.225 µM)
C[C@]1(COc2ccc(-c3cc(COc4ccc(F)cc4)on3)cc2)Cn2cc([N+](=O)[O-])nc2O1 [IC14, (R)-2-{4-[5-(4-fluorophenoxymethyl)isoxazol-3-yl]phenoxymethyl}-2,3-dihydro-2-methyl-6-nitroimidazo[2,1-b]oxazole]	0.12 (≈ 0.257 µM)	0.12 (≈ 0.257 µM)
C[C@]1(COc2ccc(-c3cc(COc4ccc(C(F)(F)F)cc4)on3)cc2)Cn2cc([N+](=O)[O-])nc2O1 [IC15, (R)-2-{4-[5-(4-trifluoromethylphenoxymethyl)isoxazol-3-yl]phenoxymethyl}-2,3-dihydro-2-methyl-6-nitroimidazo[2,1-b]oxazole]	0.5 (≈ 0.968 µM)	0.5 (≈ 0.968 µM)
C[C@]1(COc2ccc(-c3cc(COc4ccccc4F)on3)cc2)Cn2cc([N+](=O)[O-])nc2O1 [IC16, (R)-2-{4-[5-(2-fluorophenoxymethyl)isoxazol-3-yl]phenoxymethyl}-2,3-dihydro-2-methyl-6-nitroimidazo[2,1-b]oxazole]	0.5 (≈ 1.07 µM)	0.5 (≈ 1.07 µM)
Cc1ccc(OCc2cc(-c3ccc(OC[C@@]4(C)Cn5cc([N+](=O)[O-])nc5O4)cc3)no2)cc1 [IC17, (R)-2-{4-[5-(4-methylphenoxymethyl)isoxazol-3-yl]phenoxymethyl}-2,3-dihydro-2-methyl-6-nitroimidazo[2,1-b]oxazole]	0.5 (≈ 1.08 µM)	0.5 (≈ 1.08 µM)
CC(C)c1ccc(OCc2cc(-c3ccc(OC[C@@]4(C)Cn5cc([N+](=O)[O-])nc5O4)cc3)no2)cc1 [IC18, (R)-2-{4-[5-(4-isopropylphenoxymethyl)isoxazol-3-yl]phenoxymethyl}-2,3-dihydro-2-methyl-6-nitroimidazo[2,1-b]oxazole]	0.25 (≈ 0.51 µM)	0.25 (≈ 0.51 µM)
CCc1ccc(OCc2cc(-c3ccc(OC[C@@]4(C)Cn5cc([N+](=O)[O-])nc5O4)cc3)no2)cc1 [IC19, (R)-2-{4-[5-(4-ethylphenoxymethyl)isoxazol-3-yl]phenoxymethyl}-2,3-dihydro-2-methyl-6-nitroimidazo[2,1-b]oxazole]	2 (≈ 4.2 µM)	2 (≈ 4.2 µM)
CCC(C)c1ccc(OCc2cc(-c3ccc(OC[C@@]4(C)Cn5cc([N+](=O)[O-])nc5O4)cc3)no2)cc1 (stereo partly drawn) [IC20, (R)-2-{4-[5-(4-sec-butylphenoxymethyl)isoxazol-3-yl]phenoxymethyl}-2,3-dihydro-2-methyl-6-nitroimidazo[2,1-b]oxazole]	2 (≈ 3.96 µM)	2 (≈ 3.96 µM)
C[C@]1(COc2ccc(-c3cc(COc4ccccc4)on3)cc2)Cn2cc([N+](=O)[O-])nc2O1 [IC21, (R)-2-{4-[5-(phenoxymethyl)isoxazol-3-yl]phenoxymethyl}-2,3-dihydro-2-methyl-6-nitroimidazo[2,1-b]oxazole]	4 (≈ 8.92 µM)	4 (≈ 8.92 µM)
